{"source": "patent US20130011384A1", "about": "“Use of a Material, Produced from Fungal Fermentation, as a Food Supplement” (priority 2010, published 2013)", "test_system": "methanogenic archaea", "assay": "In vitro sequential batch fermentation of sheep ruminal fluid with alfalfa hay (Example 2)", "format": "cell-based", "details": "for Acetate / Butyrate / Gas / Methane / Propionate / Total VFA: 48 hrs at 39° C., 100 μl/tube, monacolin K 20 μg/ml final", "excerpt": "The effect of a rice extract fermented by a selected strain of Monascus sp., prepared in accordance with Example 1, on ruminal fermentation, specifically on methane production, was studied in vitro by using a sequential batch fermentation system.\nThree sheep equipped with rumen cannulae, receiving hay-based feed twice a day, were used as ruminal content donors. The ruminal contents of the three animals were sampled in the morning before feeding, filtered through a cloth with a mesh size of 400 μm in diameter in order to obtain the liquid phase, and mixed in equal quantities. To seventy-five milliliters of this mixed ruminal fluid was added 300 ml of anaerobic buffer solution (Weller & Pilgrim, Br. J. Nutr. 32:341-51. 1974). An aliquot fraction (5 ml) of this ruminal fluid/buffer solution was then transferred into Hungate tubes in a CO2 atmosphere containing 100±2 mg of alfalfa hay. To each tube was added, respectively: (i) 100 μl of the Monascus extract, or (ii) pure monacolin K, (iii) a 25% (v/v) ethanol solution, or (iv) water (see Table 1 below). The tubes were incubated at 39° C. for 48 hrs. Each treatment was performed three times.\nAfter 48 hrs. of incubation, 2 ml of each of the triplicates of each treatment were mixed, and 1.5 ml of this mixture was used to inoculate 3 new Hungate tubes containing 3.5 ml of buffer and 100 mg of alfalfa hay.\nNext, 100 μl of the various treatments was added to the tubes (Cf. Table 1 above), and the tubes were again incubated at 39° C. while stirring for an additional 48 hrs. This procedure was repeated a second time.\nAt the end of each 48-hr. period, gas production and concentrations of methane and of volatile fatty acids resulting from fermentation were measured."}
{"smiles": "CC[C@H](C)C(=O)O[C@H]1C[C@@H](C)C=C2C=C[C@H](C)[C@H](CC[C@@H]3C[C@@H](O)CC(=O)O3)[C@H]21", "note": "[Monacolin K, monacolin K]", "values": [{"measurement": "Acetate", "setting": "1st Transfer", "value": "69.6 ± 1.5", "unit": "mmol/L"}, {"measurement": "Butyrate", "setting": "1st Transfer", "value": "6.1 ± 0.1", "unit": "mmol/L"}, {"measurement": "Gas", "setting": "1st Transfer", "value": "21.9 ± 0.3", "unit": "mL"}, {"measurement": "Methane", "setting": "1st Transfer", "value": "162.5 ± 22.9", "unit": "µmol"}, {"measurement": "Propionate", "setting": "1st Transfer", "value": "16.7 ± 0.4", "unit": "mmol/L"}, {"measurement": "Total VFA", "setting": "1st Transfer", "value": "96.3 ± 2.1"}, {"measurement": "Acetate", "setting": "2nd Transfer", "value": "49.1 ± 3.8", "unit": "mmol/L"}, {"measurement": "Butyrate", "setting": "2nd Transfer", "value": "5.9 ± 0.7", "unit": "mmol/L"}, {"measurement": "Gas", "setting": "2nd Transfer", "value": "17.8 ± 0.5", "unit": "mL"}, {"measurement": "Methane", "setting": "2nd Transfer", "value": "16.2 ± 17.0", "unit": "µmol"}, {"measurement": "Propionate", "setting": "2nd Transfer", "value": "19.7 ± 2.8", "unit": "mmol/L"}, {"measurement": "Total VFA", "setting": "2nd Transfer", "value": "76.5 ± 7.4"}, {"measurement": "Acetate", "setting": "3rd Transfer", "value": "57.3 ± 6.9", "unit": "mmol/L"}, {"measurement": "Butyrate", "setting": "3rd Transfer", "value": "6.6 ± 1.0", "unit": "mmol/L"}, {"measurement": "Gas", "setting": "3rd Transfer", "value": "19.2 ± 0.4", "unit": "mL"}, {"measurement": "Methane", "setting": "3rd Transfer", "value": "59.1 ± 9.4", "unit": "µmol"}, {"measurement": "Propionate", "setting": "3rd Transfer", "value": "28.5 ± 3.5", "unit": "mmol/L"}, {"measurement": "Total VFA", "setting": "3rd Transfer", "value": "95.1 ± 11.5"}, {"measurement": "methane-production-reducing effect", "setting": "in vitro, under the same conditions as the Monascus fermentation product", "value": "no methane-production-reducing effect"}]}
